Results published in the supplement of paper PMC10733146.

Columns and labels:
Assay in all cases: viability relative to DMSO control (fraction); higher = less drug effect (more viable cells)
Details in all cases: 48 h
[1] = compound: C#CCC(Cc1cnc2nc(N)nc(N)c2n1)c1ccc(C(=O)N[C@@H](CCC(=O)O)C(=O)O)cc1 [Pralatrexate]
How it was run: (§1)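 The cells were primary mononuclear tumour cells, either fresh or cryopreserved, isolated by Ficoll from blood or bone marrow or derived from processed lymph node. Each well of a 384-well plate received 4 × 10^4 cells onto compounds pre-plated at five concentrations, with one well per concentration. The medium was RPMI-1640 with penicillin/streptomycin, L-glutamine and human serum, and plates stood at 37 °C and 5% CO2 for 48 h. Viability is reported as CellTiter-Glo luminescence relative to the median of 16 inner DMSO wells.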

[2] = compound: Nc1nc2n[nH]nc2c(=O)[nH]1 [8-Azaguanin]
How it was run: as §1

[3] = compound: Nc1nc(Cl)nc2c1ncn2[C@H]1C[C@H](O)[C@@H](CO)O1 [Cladribine]
How it was run: as §1

[4] = compound: CN(C)C(=O)c1cc2cnc(Nc3ccc(N4CCNCC4)cn3)nc2n1C1CCCC1 [Ribociclib]
How it was run: as §1

[5] = compound: CCOc1cc(C(=O)N2CCC(N3CCN(C)CC3)CC2)ccc1Nc1ncc2c(n1)N(C1CCCC1)c1ccccc1C(=O)N2C [ERK5-IN-1]
How it was run: as §1

[6] = compound: NC(=O)c1ccc(I)c([N+](=O)[O-])c1 [Iniparib]
How it was run: as §1

[7] = compound: CC[C@@H]1C(=O)N(C)c2cnc(Nc3ccc(C(=O)N[C@H]4CC[C@H](N5CCN(CC6CC6)CC5)CC4)cc3OC)nc2N1C(C)C [BI6727]
How it was run: as §1

[8] = compound: Cn1c(=O)n(-c2ccc(C(C)(C)C#N)cc2)c2c3cc(-c4cnc5ccccc5c4)ccc3ncc21 [BEZ235]
How it was run: as §1

[9] = compound: CC(C)C[C@H](NC(=O)[C@H](CCc1ccccc1)NC(=O)CN1CCOCC1)C(=O)N[C@@H](Cc1ccccc1)C(=O)N[C@@H](CC(C)C)C(=O)[C@@]1(C)CO1 [Carfilzomib]
How it was run: as §1

[10] = compound: C1=N/C2=N/c3ccc(OCCN4CCCC4)c(c3)COC/C=C/COCc3cccc(c3)C(=C1)N2 [Pacritinib]
How it was run: as §1

[11] = compound: CC(=O)[C@]1(O)Cc2c(O)c3c(c(O)c2[C@@H](O[C@H]2C[C@H](N)[C@H](O)[C@H](C)O2)C1)C(=O)c1ccccc1C3=O [Idarubicin]
How it was run: as §1

[12] = compound: CC[C@H](NC(=O)[C@H](C)NC)C(=O)N1C[C@@H](O)C[C@H]1Cc1c(-c2[nH]c3cc(F)ccc3c2C[C@@H]2C[C@H](O)CN2C(=O)[C@H](CC)NC(=O)[C@H](C)NC)[nH]c2cc(F)ccc12 [Birinapant]
How it was run: as §1

[13] = compound: OC[C@H]1O[C@@H](n2cnc3c2N=CNC[C@H]3O)C[C@@H]1O [Pentostatin]
How it was run: as §1

[14] = compound: COc1cc(OC)c(/C=C/S(=O)(=O)Cc2ccc(OC)c(NCC(=O)O)c2)c(OC)c1 [Rigosertib]
How it was run: as §1

[15] = compound: OCc1ccc(-c2ccc(-c3ccc(CO)s3)o2)s1
How it was run: as §1

primary FL patient cells (S087) was tested, and the viability ([1]; 0.024 µM) was 1.01, the viability ([1]; 0.12 µM) was 0.975 and the viability ([1]; 0.6 µM) was 0.985. It also gave a viability ([1]; 3 µM) of 1.07, a viability ([1]; 15 µM) of 0.989 and a viability ([2]; 0.032 µM) of 0.994. It also gave a viability ([2]; 0.16 µM) of 0.974, a viability ([2]; 0.8 µM) of 0.889 and a viability ([2]; 4 µM) of 0.796. It also gave a viability ([2]; 20 µM) of 0.713, a viability ([3]; 0.024 µM) of 0.85 and a viability ([3]; 0.12 µM) of 0.663. It also gave a viability ([3]; 0.6 µM) of 0.628, a viability ([3]; 3 µM) of 0.592 and a viability ([3]; 15 µM) of 0.557. The viability ([4]; 0.024 µM) was 0.975, the viability ([4]; 0.12 µM) was 0.918 and the viability ([4]; 0.6 µM) was 0.946. For the same test system, the viability ([4]; 3 µM) was 0.916, the viability ([4]; 15 µM) was 0.743 and the viability ([5]; 0.024 µM) was 0.946. For the same test system, the viability ([5]; 0.12 µM) was 0.956, the viability ([5]; 0.6 µM) was 0.881 and the viability ([5]; 3 µM) was 0.769. The viability ([5]; 15 µM) was 0.368, the viability ([6]; 0.024 µM) was 1.05 and the viability ([6]; 0.12 µM) was 1.03. The viability ([6]; 0.6 µM) was 1.03, the viability ([6]; 3 µM) was 1.03 and the viability ([6]; 15 µM) was 0.94. It also gave a viability ([7]; 0.024 µM) of 0.983, a viability ([7]; 0.12 µM) of 0.974 and a viability ([7]; 0.6 µM) of 0.917. The viability ([7]; 3 µM) was 0.778, the viability ([7]; 15 µM) was 0.121 and the viability ([8]; 0.024 µM) was 0.905. It also gave a viability ([8]; 0.12 µM) of 0.986, a viability ([8]; 0.6 µM) of 0.868 and a viability ([8]; 3 µM) of 0.846. It also gave a viability ([8]; 15 µM) of 0.619, a viability ([9]; 0.00016 µM) of 0.849 and a viability ([9]; 0.0008 µM) of 0.515. The viability ([9]; 0.004 µM) was 0.272, the viability ([9]; 0.02 µM) was 0.22 and the viability ([9]; 0.1 µM) was 0.188. For the same test system, the viability ([10]; 0.024 µM) was 1.01, the viability ([10]; 0.12 µM) was 1.01 and the viability ([10]; 0.6 µM) was 0.853. It also gave a viability ([10]; 3 µM) of 0.698, a viability ([10]; 15 µM) of 0.0383 and a viability ([11]; 0.024 µM) of 0.829. The viability ([11]; 0.12 µM) was 0.71, the viability ([11]; 0.6 µM) was 0.489 and the viability ([11]; 3 µM) was 0.591. The viability ([11]; 15 µM) was 0.0467, the viability ([12]; 0.0008 µM) was 0.895 and the viability ([12]; 0.004 µM) was 0.918. It also gave a viability ([12]; 0.02 µM) of 0.927, a viability ([12]; 0.1 µM) of 0.907 and a viability ([12]; 0.5 µM) of 0.892. The viability ([13]; 0.03 µM) was 1.02, the viability ([13]; 0.15 µM) was 0.984 and the viability ([13]; 0.75 µM) was 0.967. It also gave a viability ([13]; 3.75 µM) of 0.924, a viability ([13]; 18.76 µM) of 0.902 and a viability ([14]; 0.008 µM) of 1.07. For the same test system, the viability ([14]; 0.04 µM) was 1.05, the viability ([14]; 0.2 µM) was 1 and the viability ([14]; 1 µM) was 0.896. For the same test system, the viability ([14]; 5 µM) was 0.851, the viability ([15]; 0.024 µM) was 0.941 and the viability ([15]; 0.12 µM) was 0.913. For the same test system, the viability ([15]; 0.6 µM) was 0.927, the viability ([15]; 3 µM) was 0.888 and the viability ([15]; 15 µM) was 0.487.

primary MCL patient cells (S041) was tested, and the viability ([1]; 0.024 µM) was 0.779, the viability ([1]; 0.12 µM) was 0.713 and the viability ([1]; 0.6 µM) was 0.724. The viability ([1]; 3 µM) was 0.721, the viability ([1]; 15 µM) was 0.733 and the viability ([2]; 0.032 µM) was 0.996. It also gave a viability ([2]; 0.16 µM) of 0.958, a viability ([2]; 0.8 µM) of 0.77 and a viability ([2]; 4 µM) of 0.612. It also gave a viability ([2]; 20 µM) of 0.391, a viability ([3]; 0.024 µM) of 0.833 and a viability ([3]; 0.12 µM) of 0.228. It also gave a viability ([3]; 0.6 µM) of 0.0823, a viability ([3]; 3 µM) of 0.0588 and a viability ([3]; 15 µM) of 0.047. For the same test system, the viability ([4]; 0.024 µM) was 0.966, the viability ([4]; 0.12 µM) was 0.961 and the viability ([4]; 0.6 µM) was 0.949. For the same test system, the viability ([4]; 3 µM) was 0.844, the viability ([4]; 15 µM) was 0.617 and the viability ([5]; 0.024 µM) was 1.04. The viability ([5]; 0.12 µM) was 0.955, the viability ([5]; 0.6 µM) was 0.907 and the viability ([5]; 3 µM) was 0.771. The viability ([5]; 15 µM) was 0.564, the viability ([6]; 0.024 µM) was 1.11 and the viability ([6]; 0.12 µM) was 1.03. For the same test system, the viability ([6]; 0.6 µM) was 0.999, the viability ([6]; 3 µM) was 1.01 and the viability ([6]; 15 µM) was 0.969. The viability ([7]; 0.024 µM) was 0.986, the viability ([7]; 0.12 µM) was 0.967 and the viability ([7]; 0.6 µM) was 0.873. The viability ([7]; 3 µM) was 0.76, the viability ([7]; 15 µM) was 0.35 and the viability ([8]; 0.024 µM) was 0.89. For the same test system, the viability ([8]; 0.12 µM) was 0.963, the viability ([8]; 0.6 µM) was 0.85 and the viability ([8]; 3 µM) was 0.847. The viability ([8]; 15 µM) was 0.322, the viability ([9]; 0.00016 µM) was 1.01 and the viability ([9]; 0.0008 µM) was 0.345. It also gave a viability ([9]; 0.004 µM) of 0.0174, a viability ([9]; 0.02 µM) of 0.0136 and a viability ([9]; 0.1 µM) of 0.0192. It also gave a viability ([10]; 0.024 µM) of 1.06, a viability ([10]; 0.12 µM) of 1.01 and a viability ([10]; 0.6 µM) of 0.891. The viability ([10]; 3 µM) was 0.135, the viability ([10]; 15 µM) was 0.0153 and the viability ([11]; 0.024 µM) was 0.985. The viability ([11]; 0.12 µM) was 0.462, the viability ([11]; 0.6 µM) was 0.0191 and the viability ([11]; 3 µM) was 0.0267. For the same test system, the viability ([11]; 15 µM) was 0.0135, the viability ([12]; 0.0008 µM) was 0.85 and the viability ([12]; 0.004 µM) was 0.884. The viability ([12]; 0.02 µM) was 0.934, the viability ([12]; 0.1 µM) was 0.87 and the viability ([12]; 0.5 µM) was 0.967. The viability ([13]; 0.03 µM) was 0.958, the viability ([13]; 0.15 µM) was 0.939 and the viability ([13]; 0.75 µM) was 0.905. For the same test system, the viability ([13]; 3.75 µM) was 0.904, the viability ([13]; 18.76 µM) was 0.816 and the viability ([14]; 0.008 µM) was 0.999. For the same test system, the viability ([14]; 0.04 µM) was 1.01, the viability ([14]; 0.2 µM) was 0.993 and the viability ([14]; 1 µM) was 1. It also gave a viability ([14]; 5 µM) of 0.668, a viability ([15]; 0.024 µM) of 0.981 and a viability ([15]; 0.12 µM) of 0.99. The viability ([15]; 0.6 µM) was 0.923, the viability ([15]; 3 µM) was 0.843 and the viability ([15]; 15 µM) was 0.581.
